We go through eight compounds from ChEMBL document CHEMBL1153169, “Structure-activity relationships of the ultrapotent vanilloid resiniferatoxin (RTX): The side chain benzylic methylene” (Bioorg Med Chem Lett, 2010).

T1 sequence (Q8NER1 whole entry): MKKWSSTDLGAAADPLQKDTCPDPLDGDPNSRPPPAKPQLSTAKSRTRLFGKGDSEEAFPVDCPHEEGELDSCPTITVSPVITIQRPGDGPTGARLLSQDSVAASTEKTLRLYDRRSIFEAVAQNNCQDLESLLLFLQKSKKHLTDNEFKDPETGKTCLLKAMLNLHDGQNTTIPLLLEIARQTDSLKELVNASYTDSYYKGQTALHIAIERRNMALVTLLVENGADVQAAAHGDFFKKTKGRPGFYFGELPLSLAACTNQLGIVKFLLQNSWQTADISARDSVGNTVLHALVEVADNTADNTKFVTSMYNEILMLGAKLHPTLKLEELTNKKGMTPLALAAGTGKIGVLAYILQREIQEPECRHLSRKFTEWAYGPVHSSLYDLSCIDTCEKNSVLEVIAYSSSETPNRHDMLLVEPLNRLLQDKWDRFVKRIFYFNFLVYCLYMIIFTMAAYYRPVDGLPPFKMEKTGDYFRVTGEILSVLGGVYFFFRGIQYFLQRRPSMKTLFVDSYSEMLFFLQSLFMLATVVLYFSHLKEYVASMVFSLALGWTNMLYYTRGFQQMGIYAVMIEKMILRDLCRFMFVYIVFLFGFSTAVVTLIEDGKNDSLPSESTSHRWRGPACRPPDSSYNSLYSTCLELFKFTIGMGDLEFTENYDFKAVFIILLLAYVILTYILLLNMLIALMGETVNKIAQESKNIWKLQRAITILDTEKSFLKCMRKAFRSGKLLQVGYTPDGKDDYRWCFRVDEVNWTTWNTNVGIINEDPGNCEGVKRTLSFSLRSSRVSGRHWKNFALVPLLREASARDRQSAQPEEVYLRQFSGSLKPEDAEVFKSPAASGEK

One test concerns the target T1, Transient receptor potential cation channel subfamily V member 1 (Homo sapiens, UniProt Q8NER1). As to the kind of experiment: Selectivity ratio of EC50 for drug to capsaicin for human TRPV1 expressed in HEK293 cells assessed as increase in intracellular calcium level. It is filed as cell-based. For orientation: Calcium flux is commonly read through the fluorescence of an indicator in the cells.
In the case of `C=C(C)[C@]12C[C@@H](C)[C@@]34O[C@](Cc5ccccc5)(O[C@@H]1[C@@H]3C=C(COC(=O)Oc1ccc(O)c(OC)c1)C[C@]1(O)C(=O)C(C)=C[C@@H]41)O2`, the Ratio EC50 stood at 3.

In a further test the target is T1, Transient receptor potential cation channel subfamily V member 1. As to the kind of experiment: Antagonist activity at human TRPV1 expressed in HEK293 cells assessed as inhibition of intracellular calcium level. It counts as functional, cell-based.
With `C=C(C)[C@]12C[C@@H](C)[C@@]34O[C@](Cc5ccccc5)(O[C@@H]1[C@@H]3C=C(COC(=O)Cc1cc(I)c(O)c(OC)c1)C[C@]1(O)C(=O)C(C)=C[C@@H]41)O2` [IODORESINIFERATOXIN], the IC50 turned out to be 4000 nM.

Another test shares this target. Description: Agonist activity at human TRPV1 expressed in HEK293 cells assessed as increase in intracellular calcium level. It is filed as functional, cell-based.
Consider `C=C(C)[C@]12C[C@@H](C)[C@@]34O[C@](Cc5ccccc5)(O[C@@H]1[C@@H]3C=C(COC(=O)C(C)c1ccc(O)c(OC)c1)C[C@]1(O)C(=O)C(C)=C[C@@H]41)O2` (some centres undefined), for which the EC50 is 0.98 nM.
For the compound `C=C(C)[C@]12C[C@@H](C)[C@@]34O[C@](Cc5ccccc5)(O[C@@H]1[C@@H]3C=C(COC(=O)Oc1cc(I)c(O)c(OC)c1)C[C@]1(O)C(=O)C(C)=C[C@@H]41)O2`, the 50% effective concentration (EC50) is 0.0047 nM.
Regarding `C=C(C)[C@]12C[C@@H](C)[C@@]34O[C@](Cc5ccccc5)(O[C@@H]1[C@@H]3C=C(COC(=O)C(OC(C)=O)c1ccc(O)c(OC)c1)C[C@]1(O)C(=O)C(C)=C[C@@H]41)O2` (some centres undefined), the EC50 came to 0.65 nM.
`C=C(C)[C@]12C[C@@H](C)[C@@]34O[C@](Cc5ccccc5)(O[C@@H]1[C@@H]3C=C(COC(=O)C(OC)c1ccc(O)c(OC)c1)C[C@]1(O)C(=O)C(C)=C[C@@H]41)O2` (some centres undefined): the concentration for a half-maximal effect (EC50) worked out at 17.4 nM.
With `C=C(C(=O)OCC1=C[C@H]2[C@H]3O[C@@]4(Cc5ccccc5)O[C@@]2([C@H](C)C[C@]3(C(=C)C)O4)[C@@H]2C=C(C)C(=O)[C@@]2(O)C1)c1ccc(O)c(OC)c1`, the EC50 is 0.15 nM.
On the same count and under the same terms, as for `C=C(C)[C@]12C[C@@H](C)[C@@]34O[C@](Cc5ccccc5)(O[C@@H]1[C@@H]3C=C(COC(=O)Oc1ccc(O)c(OC)c1)C[C@]1(O)C(=O)C(C)=C[C@@H]41)O2`, the figure is 13.7 nM; as for `C=C(C)[C@]12C[C@@H](C)[C@@]34O[C@](Cc5ccccc5)(O[C@@H]1[C@@H]3C=C(COC(=O)C(O)c1ccc(O)c(OC)c1)C[C@]1(O)C(=O)C(C)=C[C@@H]41)O2` (some centres undefined), 19 nM.

A word on the IC50: it is the concentration at which inhibition is half-maximal. By EC50 is commonly meant the concentration at which the effect is half-maximal.
